This passage reports MIC results from ChEMBL document CHEMBL4152326 (2018).

Type in all cases: functional
In assay [1] the test system is Klebsiella pneumoniae. Kind of assay: Antimicrobial activity against KPC-2 producing Klebsiella pneumoniae ATCC BAA-1705 in presence of human apo-transferrin by broth microdilution method.
Assay [2] relates to Pseudomonas aeruginosa. Kind of assay: Antimicrobial activity against AmpC overproducing Pseudomonas aeruginosa SR24-12 in presence of human apo-transferrin by broth microdilution method. A general note: In broth dilution the organism is exposed to a series of concentrations in liquid medium.
Assay [3] has as its system Escherichia coli. The assay is described as follows: Antimicrobial activity against SHV-4 producing Escherichia coli ATCC BAA-200 in presence of human apo-transferrin by broth microdilution method.
In assay [4] the test system is Pseudomonas aeruginosa. Kind of assay: Antimicrobial activity against IMP-1 producing Pseudomonas aeruginosa SR27001 in presence of human apo-transferrin by broth microdilution method.
Assay [5] deals with Stenotrophomonas maltophilia. The assay is described as follows: Antimicrobial activity against L-1 producing Stenotrophomonas maltophilia SR21970 in presence of human apo-transferrin by broth microdilution method.
Assay [6] deals with Pseudomonas aeruginosa. The assay is described as follows: Antimicrobial activity against Pseudomonas aeruginosa 27060deltaR1 harboring deletion of R1 plasmid in presence of human apo-transferrin by broth microdilution method.
The test system of assay [7] is Pseudomonas aeruginosa. Kind of assay: Antimicrobial activity against Pseudomonas aeruginosa SR24 in presence of human apo-transferrin by broth microdilution method.
Assay [8] relates to Acinetobacter baumannii. Kind of assay: Antimicrobial activity against OXA-23/OXA-58 producing Acinetobacter baumannii SR27323 in presence of human apo-transferrin by broth microdilution method.
The subject of assay [9] is Pseudomonas aeruginosa. The assay is described as follows: Antimicrobial activity against IMP-1 producing Pseudomonas aeruginosa SR27060 in presence of human apo-transferrin by broth microdilution method.
The test system of assay [10] is Pseudomonas aeruginosa. Kind of assay: Antimicrobial activity against VIM-2 producing Pseudomonas aeruginosa SBRKM-28 in presence of human apo-transferrin by broth microdilution method.

Consider `CC(C)(O/N=C(\C(=O)N[C@@H]1C(=O)N2C(C(=O)[O-])=C(C[N+]3(C)CCN(C(=O)c4ccc(O)c(O)c4Cl)CC3)CS[C@H]12)c1csc(N)n1)C(=O)O`, for which the MIC in assay [1] came to 0.125 µg/mL; in assay [2], 0.125 µg/mL; in assay [3], 32 µg/mL; in assay [4] it was 4 µg/mL; in [5], 1 µg/mL; in [6] it was 0.25 µg/mL. Moreover, the results for the MIC in assay [7], in assay [8] and in assay [9] were 0.125 µg/mL, 1 µg/mL and 8 µg/mL, respectively.

As to `CC(C)(O/N=C(\C(=O)N[C@@H]1C(=O)N2C(C(=O)[O-])=C(C[n+]3cc4cc(NC(=O)c5ccc(O)c(O)c5Cl)ccn4c3)CS[C@H]12)c1csc(N)n1)C(=O)O`, the MIC is 0.25 µg/mL in assay [1]; 2 µg/mL in [2]; 4 µg/mL in [3]; over 32 µg/mL in assay [4]; over 32 µg/mL in assay [5]; 4 µg/mL in assay [6]. Moreover, the MIC in assay [7] is 0.25 µg/mL; in [8] it was 0.5 µg/mL; in [9], over 32 µg/mL.

Take `CO/N=C(\C(=O)N[C@@H]1C(=O)N2C(C(=O)[O-])=C(C[N+]3(CCNC(=O)c4ccc(O)c(O)c4Cl)CCCC3)CS[C@H]12)c1csc(N)n1`: the MIC in assay [10] was determined as 0.5 µg/mL; in [4] it was 4 µg/mL; in assay [5], 2 µg/mL; in assay [9], 32 µg/mL.

On to `CC(C)(O/N=C(\C(=O)N[C@@H]1C(=O)N2C(C(=O)[O-])=C(C[N+]3(CCNC(=O)c4ccc(=O)n(O)c4)CCCC3)CS[C@H]12)c1csc(N)n1)C(=O)O`, for which the MIC in assay [1] is 2 µg/mL; in assay [2] it was 2 µg/mL; in [3], 8 µg/mL; in [4], 16 µg/mL; in assay [5], 4 µg/mL; in [6], 4 µg/mL. In addition, the MIC was determined as 2 µg/mL in assay [7], 32 µg/mL in [8] and 8 µg/mL in assay [9].

For `C[C@@H](O)[C@H]1C(=O)N2C(C(=O)O)=C(S[C@@H]3CN[C@H](C(=O)N(C)C)C3)[C@H](C)[C@H]12` [MEROPENEM], the MIC in [2] was 0.125 µg/mL; in [3], at most 0.063 µg/mL; in [5], over 64 µg/mL; in assay [7] it was at most 0.063 µg/mL.

For the compound `CC(C)(O/N=C(\C(=O)N[C@@H]1C(=O)N2C(C(=O)[O-])=C(C[N@@+]3(C)C[C@H]4CN(C(=O)c5ccc(O)c(O)c5Cl)C[C@H]4C3)CS[C@H]12)c1csc(N)n1)C(=O)O`, the MIC in assay [2] came out at 0.25 µg/mL; in assay [10] it was 0.125 µg/mL; in assay [4], 4 µg/mL; in [5] it was 0.5 µg/mL; in [6], 0.5 µg/mL; in [7] it was 0.25 µg/mL. Moreover, in [9], the MIC was determined as 4 µg/mL.

Take `C[C@@H](C[N+]1(CC2=C(C(=O)[O-])N3C(=O)[C@@H](NC(=O)/C(=N\OC(C)(C)C(=O)O)c4csc(N)n4)[C@H]3SC2)CCCC1)NC(=O)c1ccc(O)c(O)c1Cl`: the MIC in assay [2] is 0.25 µg/mL; in assay [10] it was 0.125 µg/mL; in assay [4] it was 1 µg/mL; in [5], 0.25 µg/mL; in assay [6], 0.25 µg/mL; in assay [7] it was 0.25 µg/mL. Further, in assay [9], the MIC was 2 µg/mL.

`C[N+]1(CC2=C(C(=O)[O-])N3C(=O)[C@@H](NC(=O)/C(=N\O[C@@H](CNC(=O)c4ccc(O)c(O)c4Cl)C(=O)O)c4csc(N)n4)[C@H]3SC2)CCCC1`: the MIC in [1] was 0.25 µg/mL; in [2], 0.5 µg/mL; in [3] it was over 32 µg/mL; in assay [4], 8 µg/mL; in assay [5] it was 16 µg/mL; in assay [6], 0.5 µg/mL. Also, the figures for the minimum inhibitory concentration (MIC) in [7], in assay [8] and in assay [9] were 0.125 µg/mL, 1 µg/mL and 4 µg/mL, respectively.

As to `NCC[N+]1(CC2=C(C(=O)[O-])N3C(=O)[C@@H](NC(=O)/C(=N\O[C@@H](CNC(=O)c4ccc(O)c(O)c4Cl)C(=O)O)c4csc(N)n4)[C@H]3SC2)CCCC1`, the MIC worked out at 0.125 µg/mL in assay [1]; 0.063 µg/mL in assay [2]; 8 µg/mL in [3]; 0.5 µg/mL in assay [4]; 16 µg/mL in [5]; 0.063 µg/mL in [6]. The results for the MIC in assay [7], in assay [8] and in [9] were 0.125 µg/mL, 0.5 µg/mL and 0.125 µg/mL, respectively.

As for `CC(C)(O/N=C(\C(=O)N[C@@H]1C(=O)N2C(C(=O)[O-])=C(C[N+]3(CCN)CCCC3)CS[C@H]12)c1csc(N)n1)C(=O)O`, the MIC in assay [1] was 8 µg/mL; in assay [2], 8 µg/mL; in [3] it was 16 µg/mL; in assay [4] it was 32 µg/mL; in assay [5], over 32 µg/mL; in assay [6], 4 µg/mL. For the same compound, the MIC worked out at 2 µg/mL in assay [7], 8 µg/mL in assay [8] and 16 µg/mL in assay [9].

With `CC(C)(O/N=C(\C(=O)N[C@@H]1C(=O)N2C(C(=O)[O-])=C(C[n+]3cccc4c3CCCN4C(=O)c3ccc(O)c(O)c3Cl)CS[C@H]12)c1csc(N)n1)C(=O)O`, the MIC came out at 0.125 µg/mL in assay [10], 4 µg/mL in assay [4], 0.5 µg/mL in [5] and 4 µg/mL in assay [9].

As for `CN(CC[N+]1(CC2=C(C(=O)[O-])N3C(=O)[C@@H](NC(=O)/C(=N\OC(C)(C)C(=O)O)c4csc(N)n4)[C@H]3SC2)CCCC1)C(=O)c1ccc(O)c(O)c1Cl`, the MIC in assay [2] is 0.5 µg/mL; in assay [10], 0.125 µg/mL; in assay [4], 1 µg/mL; in assay [5] it was 0.25 µg/mL; in [6], 0.5 µg/mL; in assay [7], 0.5 µg/mL. Also, in [9], the MIC was 1 µg/mL.

Regarding `CC(C)(O/N=C(\C(=O)N[C@@H]1C(=O)N2C(C(=O)[O-])=C(C[N+]3(CCCNC(=O)c4ccc(O)c(O)c4Cl)CCCC3)CS[C@H]12)c1csc(N)n1)C(=O)O`, the minimum inhibitory concentration (MIC) in [2] amounted to 0.5 µg/mL; in assay [10], 0.125 µg/mL; in assay [4], 1 µg/mL; in assay [5], 0.125 µg/mL; in assay [6] it was 0.25 µg/mL; in assay [7], 0.5 µg/mL. For the same compound, in assay [9], the MIC was determined as 1 µg/mL.

On to `CC(C)(O/N=C(\C(=O)N[C@@H]1C(=O)N2C(C(=O)[O-])=C(C[N+]3(CCNC(=O)Nc4ccc(O)c(O)c4Cl)CCCC3)CS[C@H]12)c1csc(N)n1)C(=O)O`, for which the MIC in [2] is 1 µg/mL; in assay [10], 0.5 µg/mL; in assay [4], 4 µg/mL; in [5] it was 4 µg/mL; in assay [6], 2 µg/mL; in [7], 1 µg/mL. In addition, the MIC in assay [9] was 8 µg/mL.

On to `CC(C)(O/N=C(\C(=O)N[C@@H]1C(=O)N2C(C(=O)[O-])=C(C[N+]3(C)C[C@H]4C[C@@H]3CN4C(=O)c3ccc(O)c(O)c3Cl)CS[C@H]12)c1csc(N)n1)C(=O)O` (stereo partly specified), for which the MIC in assay [2] worked out at 0.5 µg/mL; in assay [10], 0.25 µg/mL; in assay [4], 2 µg/mL; in [5] it was 0.5 µg/mL; in assay [6], 2 µg/mL; in assay [7], 0.25 µg/mL. In addition, in assay [9], the MIC was determined as 4 µg/mL.

For the compound `CC(C)(O/N=C(\C(=O)N[C@@H]1C(=O)N2C(C(=O)[O-])=C(C[N+]3(Cc4nnc(-c5ccc(O)c(O)c5Cl)o4)CCCC3)CS[C@H]12)c1csc(N)n1)C(=O)O`, the MIC in assay [2] turned out to be 0.5 µg/mL; in [10], 0.125 µg/mL; in [4] it was 2 µg/mL; in [5], 0.5 µg/mL; in [6], 0.5 µg/mL; in assay [7] it was 0.5 µg/mL. In [9], the MIC was 2 µg/mL.

Regarding `CC(C)(O/N=C(\C(=O)N[C@@H]1C(=O)N2C(C(=O)[O-])=C(C[n+]3ccc(-c4ccc(O)c(O)c4Cl)cc3)CS[C@H]12)c1csc(N)n1)C(=O)O` (stereo in doubt), the MIC in [10] was 0.25 µg/mL; in [4] it was over 64 µg/mL; in [5], 1 µg/mL; in assay [9] it was 16 µg/mL.

Consider `CC(C)(O/N=C(\C(=O)N[C@@H]1C(=O)N2C(C(=O)[O-])=C(C[N+]3(CCNC(=O)c4ccc(O)c(O)c4Cl)CCCC3)CS[C@H]12)c1nsc(N)n1)C(=O)O`, for which the minimal inhibitory concentration (MIC) came out at 0.25 µg/mL in assay [2]; 0.25 µg/mL in assay [10]; 1 µg/mL in assay [4]; 0.25 µg/mL in assay [5]; 0.25 µg/mL in assay [6]; 0.25 µg/mL in [7]. Further, in [9], the MIC worked out at 1 µg/mL.

As for `CC(C)(O/N=C(\C(=O)N[C@@H]1C(=O)N2C(C(=O)[O-])=C(C[N+]34CCC(CC3)N(C(=O)c3ccc(O)c(O)c3Cl)CC4)CS[C@H]12)c1csc(N)n1)C(=O)O`, the MIC in assay [2] amounted to 0.25 µg/mL; in assay [10], 0.125 µg/mL; in assay [4] it was 1 µg/mL; in assay [5], 0.125 µg/mL; in [6], 1 µg/mL; in assay [7], 0.25 µg/mL. Also, the minimal inhibitory concentration (MIC) in [9] is 4 µg/mL.

Turning to `COc1c(C(=O)NCC[N+]2(CC3=C(C(=O)[O-])N4C(=O)[C@@H](NC(=O)/C(=N\OC(C)(C)C(=O)O)c5csc(N)n5)[C@H]4SC3)CCCC2)ccc(O)c1O`, the MIC in [1] was 0.25 µg/mL; in assay [2], 0.125 µg/mL; in assay [3], 8 µg/mL; in [4], 4 µg/mL; in assay [5], 2 µg/mL; in assay [6] it was 2 µg/mL. The MIC in assay [7] worked out at 0.125 µg/mL; in assay [8], 1 µg/mL; in assay [9], 4 µg/mL.

For the compound `NCC[N+]1(CC2=C(C(=O)[O-])N3C(=O)[C@@H](NC(=O)/C(=N\OC[C@H](NC(=O)c4ccc(O)c(O)c4Cl)C(=O)O)c4csc(N)n4)[C@H]3SC2)CCCC1`, the MIC in [1] is 0.25 µg/mL; in assay [2], 0.25 µg/mL; in [3], over 32 µg/mL; in assay [4], 0.25 µg/mL; in [5], over 32 µg/mL; in assay [6], 0.063 µg/mL. Further, the MIC turned out to be 0.125 µg/mL in assay [7], 4 µg/mL in assay [8] and 0.125 µg/mL in assay [9].

In general, MIC refers to the lowest concentration found to suppress growth.
